Columns and labels:
GPR3 [1] = molecular target: T1, GPR3 (Homo sapiens, UniProt P46089); assay: cryo-EM structure ([…] Å), SPR, MS of co-purified ligand; GTP turnover on purified complex; EC50 from cell-based cAMP Glo-Sensor assay; parameters: GPR3–Gs–scFv16 complex; with Gs heterotrimer (scFv16-stabilised)
Target sequence in this assay (P46089 whole entry): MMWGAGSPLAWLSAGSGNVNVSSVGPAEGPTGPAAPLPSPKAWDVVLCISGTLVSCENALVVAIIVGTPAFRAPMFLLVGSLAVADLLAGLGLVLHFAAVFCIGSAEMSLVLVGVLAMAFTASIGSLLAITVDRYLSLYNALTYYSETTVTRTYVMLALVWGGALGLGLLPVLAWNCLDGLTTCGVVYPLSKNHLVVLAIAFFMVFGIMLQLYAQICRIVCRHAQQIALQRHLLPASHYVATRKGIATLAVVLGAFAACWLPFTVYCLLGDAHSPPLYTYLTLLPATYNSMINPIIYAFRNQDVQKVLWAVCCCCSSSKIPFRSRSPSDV
Target sequence in this assay (P63092 2-394 partner): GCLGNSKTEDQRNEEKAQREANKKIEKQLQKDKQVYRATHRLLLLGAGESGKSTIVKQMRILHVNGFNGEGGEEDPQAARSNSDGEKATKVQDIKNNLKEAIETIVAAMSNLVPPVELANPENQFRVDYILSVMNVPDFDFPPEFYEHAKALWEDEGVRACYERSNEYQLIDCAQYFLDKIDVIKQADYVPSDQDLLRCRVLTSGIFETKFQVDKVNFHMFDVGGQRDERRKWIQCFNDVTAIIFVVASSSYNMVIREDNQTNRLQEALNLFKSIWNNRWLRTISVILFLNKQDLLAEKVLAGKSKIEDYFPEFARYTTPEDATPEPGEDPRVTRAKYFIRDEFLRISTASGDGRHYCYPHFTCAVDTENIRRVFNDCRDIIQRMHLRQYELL
Target sequence in this assay (P62873 2-340 partner): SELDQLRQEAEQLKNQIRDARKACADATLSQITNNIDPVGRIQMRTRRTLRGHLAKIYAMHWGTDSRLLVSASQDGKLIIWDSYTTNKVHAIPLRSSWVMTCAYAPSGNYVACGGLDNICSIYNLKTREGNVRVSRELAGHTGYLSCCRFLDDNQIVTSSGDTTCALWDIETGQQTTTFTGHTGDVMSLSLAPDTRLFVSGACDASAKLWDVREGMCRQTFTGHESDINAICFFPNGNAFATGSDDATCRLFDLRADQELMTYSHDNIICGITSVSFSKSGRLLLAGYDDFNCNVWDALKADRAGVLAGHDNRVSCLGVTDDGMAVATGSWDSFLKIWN
Target sequence in this assay (P59768 2-68 partner): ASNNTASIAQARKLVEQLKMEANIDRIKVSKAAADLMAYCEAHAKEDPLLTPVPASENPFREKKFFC

GPR3 [2] = molecular target: T1, GPR3; assay: cell-based cAMP Glo-Sensor assay (no significant activity in purified GTP turnover assay)
Target sequence in this assay (P46089 whole entry): as the sequence (P46089 whole entry) above

Row | SMILES | EC50 (GPR3 [1]) | EC50 (GPR3 [2])
1 | CCCCCCCC/C=C\CCCCCCCC(=O)NCCO [OEA, oleoylethanolamide] | 2500 nM | 
2 | CCCCCCCC/C=C\CCCCCCCC(N)=O [oleamide] |  | 5.6 µM
